Experiment: Drug release from PCMC composite coating with PLGA diffusion barrier
Assay type: physicochemical
Conditions: release from HAP/PLGA PCMC coating of Example 9 (paclitaxel in HAP phase, Rapamycin in polymer phase) covered with 2 μm thick PLGA (85:15) layer
Procedure: Porous HAP coating was deposited on stent as in the above Example 2. The HAP porous coating stents was impregnated into 2 wt % paclitaxel methanol solution for 20 min and then removed extra solution by high speed spinning, then dried in an oven for 2 hours. The paclitaxel was filled into mesopores and partial into large pore micropores. The paclitaxel loaded stents were subsequently impregnated with 10 wt % PLGA acetone solution containing 2 wt % Rapamycin and then the extra solution removed by spinning. The biopolymer PLGA filled inside pores provides extra flexibility for HAP coatings and diffusion barrier for controlling drug release profiles. Rapamycin in the polymer phase will release much faster than that of paclitaxel only in the HAP phase.
As illustrated in the above Example 9, different drugs were encapsulated into the polymer and HAP phases. In order to add further controls for drug release profile, e.g. to further slow down the drug release rate, a functional diffusion barrier was deposited on the surface of the composite PCMC coating. In this particular example, a 2 μm thick PLGA (85:15) layer was deposited on the PCMC surface by spin-coating. Rapamycin release from such modified PCMC coating was sustained for 3-5 months and paclitaxel for 6-12 months.

With `CC(=O)O[C@H]1C(=O)[C@@]2(C)[C@H]([C@H](OC(=O)c3ccccc3)[C@]3(O)C[C@H](OC(=O)[C@H](O)[C@@H](NC(=O)c4ccccc4)c4ccccc4)C(C)=C1C3(C)C)[C@]1(OC(C)=O)CO[C@@H]1C[C@@H]2O` [paclitaxel] the “drug release sustained for” value was 6-12 months.
